“Also recorded” adds a separate entry of the source.
What was measured:
[1] = biological target: SAT1 (Homo sapiens, UniProt P21673); details: literature; cited from earlier work
[2] = test system: transgenic mice (Line 61) expressing wildtype human α-synuclein; test: α-Synuclein transgenic mice, intraventricular infusion, immunohistochemical analysis of α-synuclein accumulation and neurodegeneration; format: in vivo; details: for overall α-synuclein pathology / PD phenotype / neuronal accumulation of α-synuclein in the basal ganglia (mean α-synuclein cell pixel intensity, caudo-putamen) / dendritic complexity in the basal ganglia as detected by MAP2 (% of neuropil covered by MAP2 immunoreactive dendrites) / tyrosine hydroxylase (TH) fibers (TH corrected optical density in the caudo-putamen): infusion via osmotic minipumps six weeks; for neuronal accumulation of α-synuclein in the basal ganglia (mean α-synuclein cell pixel intensity, caudo-putamen): DENSPM 62 μM, Berenil 30 μM; for neuronal accumulation of α-synuclein in the basal ganglia (mean α-synuclein cell pixel intensity, caudo-putamen) / mean α-synuclein cell pixel intensity in the substantia nigra: compared to transgenic mice treated with PBS; for dendritic complexity in the basal ganglia as detected by MAP2 (% of neuropil covered by MAP2 immunoreactive dendrites) / tyrosine hydroxylase (TH) fibers (TH corrected optical density in the caudo-putamen): compared to syntgPBS; for mean α-synuclein cell pixel intensity in the substantia nigra: infusion via osmotic pumps six weeks
Description: α-Synuclein transgenic mice and infusion: For this study, heterozygous transgenic (tg) mice (Line 61) expressing wildtype human α-synuclein (hα-syn) under the regulatory control of the mThy1 promoter were used (Rockenstein, E. et al. 2002). These animals were selected because they display abnormal accumulation of detergent-insoluble hα-syn and develop hα-syn-immunoreactive inclusion like structures in the basal ganglia, cortex, and limbic system (Rockentein, E. et al. 2002). Furthermore, these animals also display neurodegenerative and motor deficits that mimic certain aspects of PD and Dementia with Lewy bodies (Fleming, S. et al. 2004). Infusions were performed as previously described (Veinbergs, I. et al. 2001). In order to evaluate the effects of the polyamine pathway, hα-syn tg mice (10-11 months old) received intraventricular infusions with a cannula implanted into the skull and connected to osmotic minipumps of either vehicle, Beneril, or DENSPM. A total of 15 hu-syn tg mice (n=5 per group) were used for these experiments. Mice were treated for six weeks; the compounds were dissolved in 0.9% NaCl at a concentration of 62 μM for DENSPM and 30 μM for Berenil at a pH of 7.2. Then, 200 μL of these solutions were filled into the osmotic minipump (Alzet) ensuring constant delivery ([…]). The minipump was implanted subcutaneously on the back under light anesthesia. An additional group of control non tg (n=5) mice were implanted with minipumps filled with vehicle only. All procedures were completed under the specifications set forth by the Institutional Animal Care and Use Committee.
Brains were removed and divided sagittally. One hemibrain was postfixed in phosphate-buffered 4% paraformaldehyde, pH 7.4, at 4° C. for 48 h and sectioned at 40 μm with a Vibratome 2000 (Leica) and placed in cryosolution, whereas the other hemibrain was snap frozen and stored at −70° C. for further analysis. Sections were first washed 3×5 minutes each in PBS. They were then pretreated with 1% Triton-X, 3% hydrogen peroxide in PBS for 15 minutes, washed again 3×5 min in PBS and blocked in 10% serum matching the animal the secondary antibody was raised in for 1 hour and then washed in PBS. Sections were then placed in primary antibody: mouse anti-TH, rabbit anti-(h) α-syn, mouse anti-MAP2 (Chemicon, (1:500)) overnight in 4° C. Sections were washed 3×5 min in PBS and then placed in biotynilated secondary antibody (1:100) (Vector Laboratories) for 2 hours. After washing again 3 times in PBS, sections were placed in 20% […] (DAB) (Vector Laboratories) for 20 seconds. The reaction with DAB was halted by immersing the sections in double distilled water. Sections were then mounted, dried and coverslipped with Entillin (Fisher Scientific). Sections for fluorescent immunohistochemistry were treated with mouse monoclonal anti-microtuble-associated protein 2 (MAP2, 1:50, Roche Molecular Biochemicals) primary antibody. This antibody was then detected with the fluorescein isothiocyanate (FITC)-conjugated anti-mouse secondary antibody (Vector Laboratories). Coverslips were air-dried overnight, mounted on slides with anti-fading media (Vectashield, Vector Laboratories), and imaged with the LSCM (MRC 1024, Bio-Rad). The immunolabeled blind-coded sections were imaged by LSCM (MRC1024, Bio-Rad) and analyzed with the Image 1.43 program (NIH), as previously described (Fleming, S. et al. 2004).

[3] = biological target: α-synuclein (Homo sapiens, UniProt P37840); details: in vitro system, exogenously added (Antony 2003); cited from earlier work
[4] = test system: yeast expressing α-synuclein (wildtype and A53T); details: YPGal medium, spermine 0, 0.2, 0.4 mM; Syn-WT and Syn-A53T versus empty vector strain

Sequence of SAT1 (P21673 whole entry, the tested form may be a part): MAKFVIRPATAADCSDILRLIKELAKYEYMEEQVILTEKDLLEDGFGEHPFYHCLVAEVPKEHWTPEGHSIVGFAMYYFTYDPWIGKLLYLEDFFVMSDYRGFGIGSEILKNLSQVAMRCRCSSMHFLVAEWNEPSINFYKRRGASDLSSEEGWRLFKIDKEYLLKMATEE

Structure (SMILES): CC(=O)NCC(=O)O.CC(=O)NCC(=O)O.N=C(N)c1ccc(N=NNc2ccc(C(=N)N)cc2)cc1 [Berenil, diminazene aceturate]
- SAT1 activity [1]: reduces
- overall α-synuclein pathology / PD phenotype [2]: worsened
- neuronal accumulation of α-synuclein in the basal ganglia (mean α-synuclein cell pixel intensity, caudo-putamen) [2]: increased
- dendritic complexity in the basal ganglia as detected by MAP2 (% of neuropil covered by MAP2 immunoreactive dendrites) [2]: worsened; also recorded: decrease
- tyrosine hydroxylase (TH) fibers (TH corrected optical density in the caudo-putamen) [2]: worsened; also recorded: decreased
- mean α-synuclein cell pixel intensity in the substantia nigra [2]: increased

Structure (SMILES): NCCCNCCCCNCCCN [Spermine, spermine]
- aggregation of α-synuclein [3]: accelerate
- toxicity of exogenous spermine (growth curves, OD600) [4]: more toxic

Structure (SMILES): CCNCCCNCCCNCCCNCC [DENSPM, N1, N11-diethylnorspermine]
- SAT1 activity [1]: increases
- overall α-synuclein pathology / PD phenotype [2]: partially rescued; also recorded: partially improved
- neuronal accumulation of α-synuclein in the basal ganglia (mean α-synuclein cell pixel intensity, caudo-putamen) [2]: decreased
- dendritic complexity in the basal ganglia as detected by MAP2 (% of neuropil covered by MAP2 immunoreactive dendrites) [2]: ameliorated; also recorded: rescued
- tyrosine hydroxylase (TH) fibers (TH corrected optical density in the caudo-putamen) [2]: partially rescued; also recorded: increased
- mean α-synuclein cell pixel intensity in the substantia nigra [2]: trending decrease

— patent US20120129939A1, “POLYAMINE INHIBITORS FOR THE TREATMENT AND PREVENTION OF PARKINSON'S DISEASE” (priority 2009, published 2012)
